How the values were obtained:
let-7 miRNA = assay: miRNA PCR of let-7 family in CD34+ cord blood cells co-transduced with lenti-JAK2 and lenti-BCR-ABL on SL/M2 stromal cultures; format: cell-based, human
Method: Human specific RPL27 primers were used as housekeeping control. MicroRNA extraction was performed using the RNeasy Micro Kit (Qiagen) according to the manufacturer's instructions. Then 30 ng of cDNA was prepared in a reverse transcription reaction using miScript RTII™ kit (Qiagen) and served as a template for the quantification of the expression of mature miRNA of interest. Also, qRT-PCR was performed using miRNA human-specific primers and SYBR Green Kit (Qiagen). MiScript™ primers, RNU6_2 (Qiagen), were used as housekeeping control.

ADAR1 = biological target: T1, ADAR1 (Homo sapiens, UniProt P55265); assay: RESSqPCR RNA editing ratio of APOBEC3D in K562 cells transduced with ADAR1 WT or ADAR1 E912A mutant; format: cell-based; settings: K562 leukemic cell line, lentiviral ADAR1 WT or ADAR1 E912A
T1 construct: Full-length human adenosine deaminase, RNA-specific (ADAR1), transcript variant 1; T2A-GFP cassette of the vector pCDH-EF1-T2A-GFP (self-cleaving 2A; any remnant on ADAR1 not described); expressed in transfected cells; host or cells: K562 leukemia cells, lentiviral transduction (pCDH backbone)
T1 sequence (P55265 1-1226): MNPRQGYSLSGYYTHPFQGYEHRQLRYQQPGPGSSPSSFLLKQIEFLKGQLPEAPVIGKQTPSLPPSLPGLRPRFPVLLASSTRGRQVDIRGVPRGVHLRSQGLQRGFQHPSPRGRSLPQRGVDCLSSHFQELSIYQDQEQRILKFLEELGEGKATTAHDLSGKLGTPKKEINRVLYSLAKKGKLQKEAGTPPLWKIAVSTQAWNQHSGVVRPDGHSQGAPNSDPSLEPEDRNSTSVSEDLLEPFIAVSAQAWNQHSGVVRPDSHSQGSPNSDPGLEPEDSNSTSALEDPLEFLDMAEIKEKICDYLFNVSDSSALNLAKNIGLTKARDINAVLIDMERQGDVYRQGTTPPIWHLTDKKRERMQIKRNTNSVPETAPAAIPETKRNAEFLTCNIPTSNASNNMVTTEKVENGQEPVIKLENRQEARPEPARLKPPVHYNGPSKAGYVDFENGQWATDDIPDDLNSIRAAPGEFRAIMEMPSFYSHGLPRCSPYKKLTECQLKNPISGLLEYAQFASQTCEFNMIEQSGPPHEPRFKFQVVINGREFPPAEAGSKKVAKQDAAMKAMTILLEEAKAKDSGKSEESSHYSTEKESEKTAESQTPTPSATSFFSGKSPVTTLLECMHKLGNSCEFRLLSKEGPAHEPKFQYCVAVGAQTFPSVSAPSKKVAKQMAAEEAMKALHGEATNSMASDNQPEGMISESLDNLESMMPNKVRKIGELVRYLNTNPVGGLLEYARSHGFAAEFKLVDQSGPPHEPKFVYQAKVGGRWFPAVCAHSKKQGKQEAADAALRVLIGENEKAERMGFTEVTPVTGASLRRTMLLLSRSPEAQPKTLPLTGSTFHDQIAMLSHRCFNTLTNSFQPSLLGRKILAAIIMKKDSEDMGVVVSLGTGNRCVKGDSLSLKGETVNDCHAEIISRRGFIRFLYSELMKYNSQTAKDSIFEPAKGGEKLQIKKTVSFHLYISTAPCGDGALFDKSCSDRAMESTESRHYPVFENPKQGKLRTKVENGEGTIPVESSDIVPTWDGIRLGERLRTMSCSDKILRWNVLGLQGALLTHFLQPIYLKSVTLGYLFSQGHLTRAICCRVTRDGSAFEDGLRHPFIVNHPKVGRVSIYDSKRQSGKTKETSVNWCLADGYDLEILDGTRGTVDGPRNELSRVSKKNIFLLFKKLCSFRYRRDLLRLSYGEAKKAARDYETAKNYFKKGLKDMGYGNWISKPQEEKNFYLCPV
Text: FIG. 5b graphically illustrates data of a RNA editing ratio of APOBEC3D by RESSqPCR in K562 leukemia cells transduced with ADAR1 WT and ADAR1E912A mutant following 8-aza treatment (n=3). The values are normalized to the editing ratio observed in pCDH control cells.
As previously described (Yildirim et al., 2013), for each RNA editing site, two sets of primers were used: one pair detecting the WT transcript (an “A” base), and one pair detecting the edited transcript containing a “G” base representing inosine substitution. The forward (FW) outer and reverse (REV) outer primers flank the editing site and can be used for Sanger sequencing validation of each editing site, and also as a qRTPCR positive control to ensure that the editing region is detectable in cDNA. The 3′ ends of the FW inner and REV inner primers match either the WT A or edited G nucleotide, and an additional mismatch was incorporated two nucleotides upstream of the 3′ primer end to enhance allelic discrimination, as previously described for quantitative detection of transcripts harboring single nucleotide genomic mutations. RESSqPCR was performed as recently described (Yildirim et al., 2013) using highly validated RNA editing site specific primers for APOBEC3D. […] Relative RNA editing rates (Relative edit/WT RNA) were calculated using the following calculation: 2^-(Ct Edit-Ct WT).

[1] = test system: BCR-ABL and JAK2 signaling; assay: qRT-PCR of BCR-ABL and JAK2 mRNA and p-CRKL, p-STAT5a Western blot in K562 cells; format: cell-based, human; settings: 8-aza at increasing concentrations
Text: FIG. 14(a) graphically illustrates a RT-qPCR analysis of BCR-ABL and JAK2 mRNA in K562 cells transduced with pCDH vector control, lenti-ADAR1 WT, and lenti-ADAR1 mutant treated with 8-aza at increasing concentrations (n=3). FIG. 14(b) illustrates a Quantification of p-STAT5, p-CRKL, and β-actin protein expression in K562 cells transduced with pCDH vector control, lenti-ADAR1 WT, and lenti-ADAR1 mutant treated with 8-aza at increasing concentrations (n=3).

RNA editing of APOBEC3D = assay: RESSqPCR RNA editing ratio of APOBEC3D in CD34+ cord blood cells co-transduced with lenti-JAK2 and lenti-BCR-ABL; format: cell-based, human; settings: JAK2/BCR-ABL1 transduced progenitors, two weeks SL/M2 stromal co-culture; 8-Aza 10-25 nM, SAR302503 100 nM
LIN28B = LIN28B expression in CD34+ cord blood cells co-transduced with lenti-JAK2 and lenti-BCR-ABL; format: cell-based, human; settings: JAK2/BCR-ABL1 transduced progenitors, two weeks SL/M2 stromal co-culture; 8-Aza 10-25 nM, SAR302503 100 nM
[2] = test system: normal CD34+ hematopoietic progenitors; assay: Secondary colony replating of normal CD34+ progenitors after SL/M2 stromal co-culture; format: cell-based, human; settings: SL/M2 stromal co-cultures; 8-Aza 10-25 nM, SAR302503 100 nM
Method: FIG. 5h graphically illustrates data of a percentage of secondary colonies formed after replating primary colonies from normal bone marrow or BC CD34. cells treated with different dose of 8-aza (n=3).
FIG. 5i graphically illustrates data of a percentage of secondary colonies formed after replating primary colonies from normal bone marrow or BC CML following treatment.
H5100™ media (StemCell Technologies) along with different treatment. After 2 week of culture human cells were plated, in triplicate, in Methocult™ media (StemCell Technologies) for colony-forming and replating assays.
Following lentiviral transduction or in vitro culture with SL/M2 stroma, human cells were harvested, counted by trypan blue exclusion and 100-200 cells were plated per well of a 12-well plate in Methocultmedia. After 2 weeks, total colonies were counted and replated for secondary colony-formation assay.

ADAR1 isoforms (p150) = assay: qRT-PCR of ADAR1 expression in CD34+ cord blood cells co-transduced with lenti-JAK2 and lenti-BCR-ABL on SL/M2 stromal cultures; settings: for ADAR1 expression: JAK2/BCR-ABL1 transduced progenitors, two weeks SL/M2 stromal co-culture, 8-Aza 10-25 nM, SAR302503 100 nM
[3] = test system: ADAR-mediated A-to-I editing activity in K562 leukemia cells co-transduced with lenti-ADAR1 and lenti-JAK2; assay: Dual luciferase reporter assay of ADAR-specific RNA editing activity in K562 cells; format: cell-based, human; settings: SAR302503 100 nM or 300 nM, 3 hrs
[4] = JAK2/BCR-ABL1 transduced progenitors, two weeks SL/M2 stromal co-culture, 8-Aza 10-25 nM, SAR302503 100 nM
[5] = JAK2/BCR-ABL1 transduced normal CD34+ progenitors, SAR302503 100 nM and 600 nM on SL/M2 stromal cultures

| self renewal capacity of normal CD34+ hematopoietic progenitors [2] | SMILES | let-7 miRNA biogenesis (let-7 miRNA; [4]) | ADAR1's adenosine-to-inosine (A-to-I) editing activity (ADAR1) | effect on BCR-ABL and JAK2 signaling (qRT-PCR, p-CRKL and p-STAT5a Western blot) [1] | RNA editing activity (APOBEC3D RESSqPCR) (RNA editing of APOBEC3D) | LIN28B expression (LIN28B) | ADAR1 expression (ADAR1 isoforms (p150)) | RNA editing activity (luciferase reporter) [3] | let-7 miRNA biogenesis (let-7 miRNA; [5]) | ADAR1 p150 isoform expression (ADAR1 isoforms (p150); [5]) |
| --- | --- | --- | --- | --- | --- | --- | --- | --- | --- | --- |
| not significantly impaired | Nc1ncnc2c1nnn2[C@@H]1O[C@H](CO)[C@@H](O)[C@H]1O [8-aza, 8-azaadenosine] | restored let-7 miRNA biogenesis | reduced ADAR1's adenosine-to-inosine (A-to-I) editing activity | no effect on BCR-ABL and JAK2 signaling | reduction | reduction | reduction in ADAR1 expression | – | – | – |
| – | Cc1cnc(Nc2ccc(OCCN3CCCC3)cc2)nc1Nc1cccc(S(=O)(=O)NC(C)(C)C)c1 [SAR302503, N-tert-Butyl-3-{5-methyl-2-[4-(2-pyrrolidin-1-yl-ethoxy)-phenylamino]-pyrimidin-4-ylamino}-benzenesulfonamide] | restored let-7 miRNA biogenesis | – | – | reduction | reduction | reduction in ADAR1 expression | reversed RNA editing activity in a dose dependent manner | restored let-7 miRNA biogenesis in a dose-dependent manner | reduced ADAR1 p150 isoform expression |

— patent US20240165145A1, “COMPOSITIONS AND METHODS FOR TREATING CANCER AND BIOMARKERS TO DETECT CANCER STEM CELL REPROGRAMMING AND PROGRESSION” (The Regents of the University of California, priority 2016, published 2024)
